Where “and” joins values, the source holds several entries; their conditions need not be identical. Identical values can stand only once.

IC50 and viability, T/C data for 7 compounds are collected here from PubChem BioAssay AID1918949 (Molecular Pharmacology Branch, DTP, NCI, 2023).

This assay deals with K24384-001-R-PDC complex spheroid viability. Nature of the assay: Anticancer human tumor K24384-001-R-PDC patient-derived pancreatic adenocarcinoma cell line growth inhibition. The conditions noted are these: for viability, T/C: stronger effect = lower value. Put shortly: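 Complex spheroids of tumor cells with HUVEC and human MSCs, exposed to iadademstat combined with other agents. Each agent tested in half-log steps from near clinical Cmax (else 10 microM top), DMSO ≤0.25%.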

Setting [1] is: curve of first compound, second compound 0.1 µM.
[2] abbreviates: curve of first compound, second compound 0.316 µM.
The mark [3] stands for this setting: curve of first compound, second compound 1 µM.
Setting [4] is: curve of first compound, second compound 3.16 µM.
The mark [5] stands for this setting: curve of first compound, second compound 10 µM.
[6] abbreviates: second compound 0.1 µM, first compound 0.00316 µM.
Setting [7] is: second compound 0.1 µM, first compound 0.01 µM.
[8] abbreviates: second compound 0.1 µM, first compound 0.0316 µM.
Setting [9] is: second compound 0.1 µM, first compound 0.1 µM.
Setting [10] is: second compound 0.1 µM, first compound 0.316 µM.
Setting [11] is: second compound 0.1 µM, first compound 1 µM.
Setting [12] is: second compound 0.316 µM, first compound 0.00316 µM.
Where [13] appears, read: second compound 0.316 µM, first compound 0.01 µM.
Where [14] appears, read: second compound 0.316 µM, first compound 0.0316 µM.
Where [15] appears, read: second compound 0.316 µM, first compound 0.1 µM.
[16] abbreviates: second compound 0.316 µM, first compound 0.316 µM.
Setting [17] is: second compound 0.316 µM, first compound 1 µM.
[18] abbreviates: second compound 1 µM, first compound 0.00316 µM.
Where [19] appears, read: second compound 1 µM, first compound 0.01 µM.
[20] abbreviates: second compound 1 µM, first compound 0.0316 µM.
Where [21] appears, read: second compound 1 µM, first compound 0.1 µM.
The mark [22] stands for this setting: second compound 1 µM, first compound 0.316 µM.
Where [23] appears, read: second compound 1 µM, first compound 1 µM.
Where [24] appears, read: second compound 3.16 µM, first compound 0.00316 µM.
[25] abbreviates: second compound 3.16 µM, first compound 0.01 µM.
Setting [26] is: second compound 3.16 µM, first compound 0.0316 µM.
Setting [27] is: second compound 3.16 µM, first compound 0.1 µM.
The mark [28] stands for this setting: second compound 3.16 µM, first compound 0.316 µM.
Where [29] appears, read: second compound 3.16 µM, first compound 1 µM.
The mark [30] stands for this setting: second compound 10 µM, first compound 0.00316 µM.
Where [31] appears, read: second compound 10 µM, first compound 0.01 µM.
Where [32] appears, read: second compound 10 µM, first compound 0.0316 µM.
Setting [33] is: second compound 10 µM, first compound 0.1 µM.
[34] abbreviates: second compound 10 µM, first compound 0.316 µM.
The mark [35] stands for this setting: second compound 10 µM, first compound 1 µM.
The mark [36] stands for this setting: second compound 0.1 µM, first compound 3.16 µM.
Where [37] appears, read: second compound 0.1 µM, first compound 10 µM.
Where [38] appears, read: second compound 0.316 µM, first compound 3.16 µM.
Setting [39] is: second compound 0.316 µM, first compound 10 µM.
[40] abbreviates: second compound 1 µM, first compound 3.16 µM.
[41] abbreviates: second compound 1 µM, first compound 10 µM.
The mark [42] stands for this setting: second compound 3.16 µM, first compound 3.16 µM.
Where [43] appears, read: second compound 3.16 µM, first compound 10 µM.
Setting [44] is: second compound 10 µM, first compound 3.16 µM.
Setting [45] is: second compound 10 µM, first compound 10 µM.
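Also: spheroids exposed to agents for seven days before luminescence viability reading.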
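For viability, T/C in this document: 100% = DMSO vehicle control viability.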

For orientation: IC50 means the point on the concentration scale where inhibition reaches its midpoint. As a reminder, the viability, T/C is the result in the treated group divided by that in the control group, in per cent. Consider `Nc1ncn(C2CC(O)C(CO)O2)c(=O)n1` (stereo unspecified) + NC1CCC(NC2CC2c2ccccc2)CC1, for which the IC50 is above 1000 nM under setting [1]; above 1000 nM under setting [2]; above 1000 nM under setting [3]; above 1000 nM under setting [4]; above 1000 nM under setting [5]. Moreover, the viability, T/C runs as follows: under setting [6], 78.3%; under setting [7], 93.8%; under setting [8], 80.4%; under setting [9], 73.6%; under setting [10], 79.5%; under setting [11], 73.5%. Also, the viability, T/C reads like this: under setting [12], 88%; under setting [13], 79.4%; under setting [14], 87.4%; under setting [15], 82.5%; under setting [16], 76.2%; under setting [17], 85.1%. The viability, T/C is 88.4% under setting [18]; 80.5% under setting [19]; 82.6% under setting [20]; 68.3% under setting [21]; 78.6% under setting [22]; 70.1% under setting [23]. For the same compound, the viability, T/C reads like this: under setting [24], 89.8%; under setting [25], 88%; under setting [26], 105%; under setting [27], 76.6%; under setting [28], 59.7%; under setting [29], 60.9%. In addition, the viability, T/C runs as follows: under setting [30], 92.9%; under setting [31], 83.8%; under setting [32], 87.8%; under setting [33], 63.2%; under setting [34], 73.7%; under setting [35], 72.7%.
As for `CC1COCCN1c1cc(-c2ccnn2C)c2ccnc(-c3ccn[nH]3)c2n1` (stereo unspecified), the viability, T/C runs as follows: (compound 0.00316 µM) 64.7% and 53.9%; (compound 0.01 µM) 56.8% and 55.5%; (compound 0.0316 µM) 47.3% and 37.6%; (compound 0.1 µM) 46.8% and 42.9%; (compound 0.316 µM) 49.4% and 44.7%; (compound 1 µM) 38.1% and 38.2%. Besides, the IC50 (curve of compound) was 35.1 nM and 8.59 nM.
On to `CC(C)CC(NC(=O)C(Cc1ccccc1)NC(=O)c1cnccn1)B(O)O` (stereo unspecified) + NC1CCC(NC2CC2c2ccccc2)CC1, for which the IC50 runs as follows: under setting [1], 0.464 nM; under setting [2], 0.476 nM; under setting [3], 0.38 nM; under setting [4], 0.345 nM; under setting [5], 0.422 nM. Further, the viability, T/C runs as follows: (second compound 0.1 µM, first compound 0.000316 µM) 74%; (second compound 0.1 µM, first compound 0.001 µM) 1.78%; under setting [6], 0.23%; under setting [7], 0.12%; under setting [8], 0.2%; under setting [9], 0.23%. For the same compound, the viability, T/C is, setting by setting: (second compound 0.316 µM, first compound 0.000316 µM) 76.5%; (second compound 0.316 µM, first compound 0.001 µM) 1.74%; under setting [12], 0.26%; under setting [13], 0.08%; under setting [14], 0.76%; under setting [15], 1.15%. For the same compound, the viability, T/C is, setting by setting: (second compound 1 µM, first compound 0.000316 µM) 59.1%; (second compound 1 µM, first compound 0.001 µM) 2.07%; under setting [18], 0.15%; under setting [19], 0.08%; under setting [20], 0.09%; under setting [21], 0.19%. The viability, T/C (second compound 3.16 µM, first compound 0.000316 µM) is 53.9%; the viability, T/C (second compound 3.16 µM, first compound 0.001 µM) was 1.45%; the viability, T/C under setting [24] is 0.27%; the viability, T/C under setting [25] was 0.11%; the viability, T/C under setting [26] is 0.12%; the viability, T/C under setting [27] was 0.18%. Also, the viability, T/C is 64.1% (second compound 10 µM, first compound 0.000316 µM); 8.36% (second compound 10 µM, first compound 0.001 µM); 2.45% under setting [30]; 0.22% under setting [31]; 0.21% under setting [32]; 0.3% under setting [33].
With `COc1ccc([C@@H](O)c2cc(-c3ncnc4cc(N5CCOCC5)ccc34)c(F)cc2Cl)nn1` + NC1CC1c1ccc(-c2cccc(O)c2)cc1, the concentration for half-maximal inhibition (IC50) under setting [1] amounted to 1330 nM; the IC50 under setting [2] came to 2000 nM; the half-inhibitory concentration (IC50) under setting [3] is 1490 nM; the IC50 under setting [4] turned out to be 1440 nM; the IC50 under setting [5] was found to be 1450 nM. For the same compound, the viability, T/C under setting [8] is 97%; the viability, T/C under setting [9] was 95.6%; the viability, T/C under setting [10] is 87.2%; the viability, T/C under setting [11] was 55.9%; the viability, T/C under setting [36] was 29.6%; the viability, T/C under setting [37] is 17.8%. Besides, the viability, T/C under setting [14] was 112%; the viability, T/C under setting [15] is 102%; the viability, T/C under setting [16] is 91.1%; the viability, T/C under setting [17] was 73.2%; the viability, T/C under setting [38] was 34.3%; the viability, T/C under setting [39] is 15.1%. For the same compound, the viability, T/C reads like this: under setting [20], 117%; under setting [21], 103%; under setting [22], 95.2%; under setting [23], 61.3%; under setting [40], 28.1%; under setting [41], 15.9%. Also, the viability, T/C reads like this: under setting [26], 105%; under setting [27], 105%; under setting [28], 79.7%; under setting [29], 62.7%; under setting [42], 28.6%; under setting [43], 15.1%. The viability, T/C by setting is: under setting [32], 124%; under setting [33], 114%; under setting [34], 96.6%; under setting [35], 57%; under setting [44], 32.2%; under setting [45], 14.9%.
`NC1CCC(NC2CC2c2ccccc2)CC1` (stereo unspecified): the viability, T/C (compound 0.316 µM) is 83.6% and 74.8%. In addition, under “compound alone, run of 02/15/2022”, the half-maximal inhibitory concentration (IC50) is above 10000 nM.
As to `CC(C)c1c(-c2ccccc2)nc2c(C#N)c[nH]n2c1=O`, the viability, T/C reads like this: (compound 0.0316 µM) 89.9% and 82.5%; (compound 0.1 µM) 88.6% and 104%; (compound 0.316 µM) 96.9% and 93.2%; (compound 1 µM) 94.9% and 81.5%; (compound 3.16 µM) 97.4% and 69.9%; (compound 10 µM) 104% and 91.6%. Moreover, the half-maximal inhibitory concentration (IC50) (curve of compound) is above 10000 nM.
For `CC(C)c1c(-c2ccccc2)nc2c(C#N)c[nH]n2c1=O` + NC1CCC(NC2CC2c2ccccc2)CC1, the IC50 by setting is: under setting [1], above 10000 nM; under setting [2], above 10000 nM; under setting [3], above 10000 nM; under setting [4], above 10000 nM; under setting [5], above 10000 nM. The viability, T/C under setting [8] was 78.2%; the viability, T/C under setting [9] is 80.2%; the viability, T/C under setting [10] is 77.7%; the viability, T/C under setting [11] was 77.3%; the viability, T/C under setting [36] was 81.4%; the viability, T/C under setting [37] was 81%. The viability, T/C reads like this: under setting [14], 78.3%; under setting [15], 70.4%; under setting [16], 85.8%; under setting [17], 72.2%; under setting [38], 77.1%; under setting [39], 87.5%. Moreover, the viability, T/C under setting [20] is 72.5%; the viability, T/C under setting [21] was 67.4%; the viability, T/C under setting [22] was 96.3%; the viability, T/C under setting [23] is 75.3%; the viability, T/C under setting [40] is 75%; the viability, T/C under setting [41] was 97.4%. For the same compound, the viability, T/C under setting [26] is 73%; the viability, T/C under setting [27] is 81.5%; the viability, T/C under setting [28] is 82.5%; the viability, T/C under setting [29] was 71%; the viability, T/C under setting [42] was 75%; the viability, T/C under setting [43] is 77.9%. Besides, the viability, T/C was 77.2% under setting [32]; 74.7% under setting [33]; 80.2% under setting [34]; 76.6% under setting [35]; 80.1% under setting [44]; 83.6% under setting [45].
